Experimental data as given in PMC2771923 (Journal of medicinal chemistry, 2008).

Legend:
[1] = target: PRWT (optimized wild-type HIV-1 PR) (Human immunodeficiency virus type 1 group M subtype B, UniProt P04585, C555A/C583A/L521I/L551I/Q495K)
[2] = target: PRV32I (V32I mutant HIV-1 PR) (Human immunodeficiency virus type 1 group M subtype B, UniProt P04585, C555A/C583A/L521I/L551I/Q495K/V520I)
PR dimers = settings: fluorescent-tagged PR monomers; cited from earlier work
HIV-1 PR = HIV-1 PR (Human immunodeficiency virus type 1 group M subtype B, UniProt P04585); settings: cited from earlier work

Row | Structure (SMILES) | γ (factor of γKi) [1] | δ (factor of δKi) [1] | Ki^uncomp (uncompetitive inhibition constant) ([1]; from intercept replots of Lineweaver-Burk plots) | γKi smaller compared to Ki^uncomp ([1]; ratio Ki^uncomp / γKi) | γ (factor of γKi) [2] | δ (factor of δKi) [2] | inhibition of the formation of PR dimers (PR dimers) | affinity for HIV-1 PR (HIV-1 PR) | dissociation rate (HIV-1 PR) | type of inhibition [1] | type of inhibition [2]
1 | CC(C)CN(C[C@@H](O)[C@H](Cc1ccccc1)NC(=O)O[C@H]1CCOC1)S(=O)(=O)c1ccc(N)cc1 [APV, amprenavir] | 0.22 | 0.23 | 28 nM | 4.5 fold | 0.45 | 0.28 | absence of APV inhibition |  |  |  | 
2 | CC(C)CN(C[C@@H](O)[C@H](Cc1ccccc1)NC(=O)O[C@H]1CO[C@H]2OCC[C@H]21)S(=O)(=O)c1ccc(N)cc1 [DRV, darunavir] | 1.2 | 0.5 |  |  | 1.7 | 0.3 | inhibited the formation of PR dimers | exceptionally high affinity | greatly decreased dissociation rate |  | 
3 | CC(C)(C)NC(=O)[C@@H]1C[C@@H]2CCCC[C@@H]2CN1C[C@@H](O)[C@H](Cc1ccccc1)NC(=O)[C@H](CC(N)=O)NC(=O)c1ccc2ccccc2n1 [SQV, saquinavir] |  |  |  |  |  |  |  |  |  | purely competitive inhibition | purely competitive inhibition
